The values that follow are results of earlier work, collected in patent US7795435B2, “Process for obtaining the polymorphic form I of finasteride” (Ragactives, S.L., priority 2002, dated 2010).

For this data set the following is noted: 25° C., according to EP 0 599 376 B1.

As for `CC(C)(C)NC(=O)[C@H]1CC[C@H]2[C@@H]3CC[C@H]4NC(=O)C=C[C@]4(C)[C@H]3CC[C@]12C` [Form I of finasteride], the solubility in cyclohexane is 0.27 ± 0.05 mg/g and the solubility in water was 0.05 ± 0.02 mg/g.
Take `CC(C)(C)NC(=O)[C@H]1CC[C@H]2[C@@H]3CC[C@H]4NC(=O)C=C[C@]4(C)[C@H]3CC[C@]12C` [Form II of finasteride]: the solubility in cyclohexane is 0.42 ± 0.05 mg/g and the solubility in water is 0.16 ± 0.02 mg/g.
